# Results as given in patent publication US7605272B2, “IGF-1R inhibitor” (Kyowa Hakko Kirin Co., Ltd., priority 2005, dated 2009).
# Where a name gives a salt, the structure may show the parent alone.
# Target: T1, IGF-1R (Homo sapiens, UniProt P08069)
# T1 construct: purchased Upstate Co. 14-465
# Assay: IGF-1R inhibitory activity (kinase reaction, time-resolved fluoroimmunoassay)
# Format: biochemical
# Conditions: IGF-1R active recombinant enzyme, test compound 10 μmol/L
# Experimental: The IGF-1R inhibitory activity was measured in the following manner.
# As IGF-1R, active recombinant enzyme (Catalog No. 14-465) purchased from Upstate Co., was used. To 96 well plate (FIA-PLATE BLACK 96 well FALT-BOTTOM HIGH BINDING, Greiner Bio-one, Catalog No. 655077) coated with NeutroAvidin (Pierce, Catalog No. 31000), biotinylated polyglutamic acid-tyrosine peptide (Nihon Schering K.K., Catalog No. 61GT0BAA) was immobilized and then blocked with 0.25% gelatin to be used as a plate for measuring the kinase reaction. Separately was prepared a solution containing at final concentrations, IGF-1R (200 μg/L), Tris.HCl(pH 7.5)(20 mmol/L), Na3VO4(0.1 mmol/L), MgCl2(1 mmol/L), MnCl2(10 mmol/L), ATP(10 mmol/L), 2-mercaptoethanol (0.04%), BSA(Bovine Serum Albumin) (0.1%), DMSO(0.1%), test compound (10 μmol/L). The solution (each 50 μL) was added to the well of the plate for measuring the kinase reaction and then, enzyme reaction was performed for 30 minutes at 24° C. The plate was washed with TBS-T [10 mmol/L Tris Cl (pH 7.5), 150 mmol/L NaCl, 0.05% Tween 20 (Bio-Rad, Catalog No. 170-6531)] 4 times, then reacted with europium-labeled anti-phosphotyrosine antibody, further washed with TBS-T 4 times and then, measured with time-resolved fluoroimmunoassay (excitation wavelength 340 nm, measuring wavelength 615 nm). The value of a well to which the test compound had not been added was considered as 100% and that of a well where the enzyme and the test compound had not been added was considered as 0%. The relative activity (%) of the well which was added with enzyme and the test compound was measured and by subtracting the calculated value from 100, IGF-1R inhibitory activity of the test compound (%) was determined.
# T1 sequence (P08069 959-1367 limits assumed): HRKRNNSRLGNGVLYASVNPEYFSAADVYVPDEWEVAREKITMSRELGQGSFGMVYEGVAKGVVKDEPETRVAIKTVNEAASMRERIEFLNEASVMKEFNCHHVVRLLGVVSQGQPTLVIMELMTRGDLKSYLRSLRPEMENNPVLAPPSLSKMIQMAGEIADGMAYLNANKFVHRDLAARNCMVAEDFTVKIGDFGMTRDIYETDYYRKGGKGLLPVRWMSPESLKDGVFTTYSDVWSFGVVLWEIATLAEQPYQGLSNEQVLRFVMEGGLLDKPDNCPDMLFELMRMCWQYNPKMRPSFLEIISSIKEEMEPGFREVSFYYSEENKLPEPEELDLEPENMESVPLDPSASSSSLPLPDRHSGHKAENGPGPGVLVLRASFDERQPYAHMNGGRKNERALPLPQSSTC
inhibition at 10 µM,inhibitory activity (%) at 10 μmol/L,Compound
69.8%,–,"O=C(O)c1csc(Nc2ccccc2/C=C/c2n[nH]c3ccccc23)n1 [Compound 170, (E)-2-{2-[2-(1H-indazol-3-yl)vinyl]phenylamino}thiazole-4-carboxylic acid]"
87.2%,–,"O=C(c1cnc(Nc2ccccc2/C=C/c2n[nH]c3ccccc23)s1)N1CCC(O)CC1 [Compound 171, (E)-4-hydroxy-1-{2-[2-(2-(1H-indazol-3-yl)vinyl)phenylamino]thiazole-5-ylcarbonyl}piperidine]"
97.8%,–,"OCc1csc(Nc2ccccc2/C=C/c2n[nH]c3ccccc23)n1 [Compound 173, (E)-2-{2-[2-(1H-indazol-3-yl)vinyl]phenylamino}thiazole-4-methanol]"
100%,–,"CN(C)C(=O)c1nc(-c2ccccc2/C=C/c2n[nH]c3ccccc23)no1 [Compound 176, (E)-N,N-dimethyl-3-{2-[2-(1H-indazol-3-yl)vinyl]phenyl}[1,2,4]oxadiazole-5-carboxamide]"
99.4%,–,"CNC(=O)c1nc(-c2ccccc2/C=C/c2n[nH]c3ccccc23)no1 [Compound 177, (E)-3-{2-[2-(1H-indazol-3-yl)vinyl]phenyl}-N-methyl[1,2,4]oxadiazole-5-carboxamide]"
71.1%,–,"O=c1[nH]c(-c2ccccc2/C=C/c2n[nH]c3ccccc23)no1 [Compound 178, (E)-3-{2-[2-(1H-indazol-3-yl)vinyl]phenyl}-4H-[1,2,4]oxadiazole-5-one]"
99.6%,–,"OCc1nc(-c2ccccc2/C=C/c2n[nH]c3ccccc23)no1 [Compound 179, (E)-3-{2-[2-(1H-indazol-3-yl)vinyl]phenyl}[1,2,4]oxadiazol-5-ylmethanol]"
98.1%,–,"OCCCc1nc(-c2ccccc2/C=C/c2n[nH]c3ccccc23)no1 [Compound 180, (E)-3-(3-{2-[2-(1H-indazol-3-yl)vinyl]phenyl}[1,2,4]oxadiazol-5-yl)propan-1-ol]"
98.9%,–,"OCCc1nc(-c2ccccc2/C=C/c2n[nH]c3ccccc23)no1 [Compound 181, (E)-2-{3-{2-[2-(1H-indazol-3-yl)vinyl]phenyl}[1,2,4]oxadiazol-5-yl}ethanol]"
97.9%,–,"C(=C\c1n[nH]c2ccccc12)/c1ccccc1-n1ccc(CN2CCOCC2)c1 [Compound 182, (E)-3-{2-[2-(3-morpholin-4-ylmethylpyrrol-1-yl)phenyl]vinyl}-1H-indazole]"
59.1%,–,"C(=C\c1n[nH]c2ccccc12)/c1ccccc1-c1nc2ccccc2o1 [Compound 183, (E)-2-{2-[2-(1H-indazol-3-yl)vinyl]phenyl}benzoxazole]"
93.2%,–,"Nc1ccc2oc(-c3ccccc3/C=C/c3n[nH]c4ccccc34)nc2c1 [Compound 185, (E)-2-{2-[2-(1H-indazol-3-yl)vinyl]phenyl}benzoxazol-5-ylamine]"
102%,–,"CN(C)CCNCc1ccn(-c2ccccc2/C=C/c2n[nH]c3ccccc23)c1 [Compound 186, (E)-N′-(1-{2-[2-(1H-indazol-3-yl)vinyl]phenyl}-1H-pyrrol-3-ylmethyl)-N,N-dimethylethane-1,2-diamine]"
98.2%,–,"OCCNCc1ccn(-c2ccccc2/C=C/c2n[nH]c3ccccc23)c1 [Compound 187, (E)-2-(1-{2-[2-(1H-indazol-3-yl)vinyl]phenyl}-1H-pyrrol-3-ylmethylamino)ethanol]"
99.4%,–,"CN(C)CCN(C)Cc1ccn(-c2ccccc2/C=C/c2n[nH]c3ccccc23)c1 [Compound 188, (E)-N-(1-{2-[2-(1H-indazol-3-yl)vinyl]phenyl}-1H-pyrrol-3-ylmethyl)-N,N′,N′-trimethylethane-1,2-diamine]"
102%,–,"C(=C\c1n[nH]c2ccccc12)/c1ccccc1-n1ccc(CNCC2CC2)c1 [Compound 189, (E)-3-cyclopropylmethylaminomethyl-1-{2-[2-(1H-indazol-3-yl)vinyl]phenyl}pyrrole]"
–,96.9%,Cc1ccc(C)n1-c1ccccc1/C=C/c1n[nH]c2ccccc12 [Compound 190]
102%,–,"Cc1cc(CO)c(C)n1-c1ccccc1/C=C/c1n[nH]c2ccccc12 [Compound 191, (E)-1-{2-[2-(1H-indazol-3-yl)vinyl]phenyl}-2,5-dimethyl-1H-pyrrol-3-ylmethanol]"
92.3%,–,"O=C1c2ccc([N+](=O)[O-])cc2C(=O)N1c1ccccc1/C=C/c1n[nH]c2ccccc12 [Compound 192, (E)-2-{2-[2-(1H-indazol-3-yl)vinyl]phenyl}-5-nitroisoindole-1,3-dione]"

inhibition at 10 µM,inhibitory activity (%) at 10 μmol/L,Compound
99.8%,–,"O=C1c2ccc(Cl)cc2C(=O)N1c1ccccc1/C=C/c1n[nH]c2ccccc12 [Compound 196, (E)-5-chloro-2-{2-[2-(1H-indazol-3-yl)vinyl]phenyl}isoindole-1,3-dione]"
101%,–,"Cc1ccc2c(c1)C(=O)N(c1ccccc1/C=C/c1n[nH]c3ccccc13)C2=O [Compound 197, (E)-2-{2-[2-(1H-indazol-3-yl)vinyl]phenyl}-5-methylisoindole-1,3-dione]"
87.2%,–,"O=C1c2ccncc2C(=O)N1c1ccccc1/C=C/c1n[nH]c2ccccc12 [Compound 198, (E)-2-{2-[2-(1H-indazol-3-yl)vinyl]phenyl}pyrrolo[3,4-c]pyridine-1,3-dione hydrochloride]"
99.4%,–,"O=C1c2cccc(F)c2C(=O)N1c1ccccc1/C=C/c1n[nH]c2ccccc12 [Compound 199, (E)-4-fluoro-2-{2-[2-(1H-indazol-3-yl)vinyl]phenyl}isoindole-1,3-dione]"
67.5%,–,"O=C1c2cccc(O)c2C(=O)N1c1ccccc1/C=C/c1n[nH]c2ccccc12 [Compound 200, (E)-4-hydroxy-2-{2-[2-(1H-indazol-3-yl)vinyl]phenyl}isoindole-1,3-dione]"
99.1%,–,"CCNc1ccc2c(c1)C(=O)N(c1ccccc1/C=C/c1n[nH]c3ccccc13)C2=O [Compound 201, (E)-5-ethylamino-2-{2-[2-(1H-indazol-3-yl)vinyl]phenyl}isoindole-1,3-dione]"
85.9%,–,"O=C1c2cc3ccccc3cc2C(=O)N1c1ccccc1/C=C/c1n[nH]c2ccccc12 [Compound 202, (E)-2-{2-[2-(1H-indazol-3-yl)vinyl]phenyl}benzo[f]isoindole-1,3-dione]"
101%,–,"O=C1C2=C(CCCC2)C(=O)N1c1ccccc1/C=C/c1n[nH]c2ccccc12 [Compound 203, (E)-2-{2-[2-(1H-indazol-3-yl)vinyl]phenyl}-4,5,6,7-tetrahydroisoindole-1,3-dione]"
99.8%,–,"CC1=C(C)C(=O)N(c2ccccc2/C=C/c2n[nH]c3ccccc23)C1=O [Compound 204, (E)-1-{2-[2-(1H-indazol-3-yl)vinyl]phenyl}-3,4-dimethylpyrrole-2,5-dione]"
89.8%,–,"O=C1c2cccnc2C(=O)N1c1ccccc1/C=C/c1n[nH]c2ccccc12 [Compound 205, (E)-6-{2-[2-(1H-indazol-3-yl)vinyl]phenyl}pyrrolo[3,4-b]pyridine-5,7-dione]"
101%,–,"O=C1CCCCN1c1ccccc1/C=C/c1n[nH]c2ccccc12 [Compound 206, (E)-1-{2-[2-(1H-indazol-3-yl)vinyl]phenyl}piperidin-2-one]"
98.1%,–,"O=C1C(Cl)=C(Cl)C(=O)N1c1ccccc1/C=C/c1n[nH]c2ccccc12 [Compound 207, (E)-3,4-dichloro-1-{2-[2-(1H-indazol-3-yl)vinyl]phenyl}pyrrole-2,5-dione]"
96.1%,–,"O=C1CCCN1c1ccccc1/C=C/c1n[nH]c2ccccc12 [Compound 208, (E)-1-{2-[2-(1H-indazol-3-yl)vinyl]phenyl}pyrrolidin-2-one]"
99.5%,–,"O=C1c2ccsc2C(=O)N1c1ccccc1/C=C/c1n[nH]c2ccccc12 [Compound 209, (E)-5-{2-[2-(1H-indazol-3-yl)vinyl]phenyl}thieno[2,3-c]pyrrole-4,6-dione]"
96.5%,–,"O=C1C2=C(CCC2)C(=O)N1c1ccccc1/C=C/c1n[nH]c2ccccc12 [Compound 210, (E)-2-{2-[2-(1H-indazol-3-yl)vinyl]phenyl}-5,6-dihydro-4H-cyclopenta[c]pyrrole-1,3-dione]"
86.7%,–,"O=C1CCC(=O)N1c1ccccc1/C=C/c1n[nH]c2ccccc12 [Compound 211, (E)-1-{2-[2-(1H-indazol-3-yl)vinyl]phenyl}pyrrolidine-2,5-dione]"
83.6%,–,"O=C1CNC(=O)N1c1ccccc1/C=C/c1n[nH]c2ccccc12 [Compound 212, (E)-3-{2-[2-(1H-indazol-3-yl)vinyl]phenyl}imidazolidine-2,4-dione]"
81.2%,–,"CS(=O)(=O)c1ccc(C(=O)Nc2ccccc2/C=C/c2n[nH]c3ccccc23)cc1 [Compound 215, (E)-N-{2-[2-(1H-indazol-3-yl)vinyl]phenyl}-4-methanesulfonylbenzamide]"
